Measured values reported in US20120225062A1 (priority 2011, published 2012).

Columns and labels:
Pim 3 = Pim 3 (Homo sapiens, UniProt Q86V86); assay: Pim 3 AlphaScreen assay (high ATP)
Pim 2 = Pim 2 (Homo sapiens, UniProt Q9P1W9); assay: Pim 2 AlphaScreen assay (high ATP)
Description: The activity of Pim 1, Pim 2, & Pim 3 is measured using a homogeneous bead based system quantifying the amount of phosphorylated peptide substrate resulting from kinase-catalyzed phosphoryl transfer to a peptide substrate. Compounds to be tested are dissolved in 100% DMSO and directly distributed to a white 384-well plate at 0.25 μl per well. […] This is followed by the addition of 5 μl/well of Pim 1, Pim 2 or Pim 3 kinase in assay buffer (concentrations described below). Final assay concentrations (described below) are in 2.5% DMSO. The reactions are performed for ˜2 hours, then stopped by the addition of 10 μl of 0.75 μg/ml anti-phospho Ser/Thr antibody (Cell Signaling), 10 μg/ml Protein A AlphaScreen beads (Perkin Elmer), and 10 μg/ml streptavidin coated AlphaScreen beads in stop/detection buffer (50 mM EDTA, 95 mM Tris, pH=7.5, 0.01% Tween-20). The stopped reactions are incubated overnight in the dark. The phosphorylated peptide is detected via an oxygen anion initiated chemiluminescence/fluorescence cascade using the Envision plate reader (Perkin Elmer).

Pim 1 = Pim 1 (Homo sapiens, UniProt P11309); assay: Pim 1 AlphaScreen assay (high ATP)
[1] = test system: KMS11 (human myeloma cell line); assay: Cell Proliferation Assay (CellTiter-Glo, 3 days); format: cell-based; conditions: KMS-11, 72 h, KMS11-luc cells
Description: KMS11 (human myeloma cell line), were cultured in IMDM supplemented with 10% FBS, sodium pyruvate and antibiotics. Cells were plated in the same medium at a density of 2000 cells per well into 96 well tissue culture plates, with outside wells vacant, on the day of assay.
Test compounds supplied in DMSO were diluted into DMSO at 500 times the desired final concentrations before dilution into culture media to 2 times final concentrations. Equal volumes of 2× compounds were added to the cells in 96 well plates and incubated at 37° C. for 3 days.
After 3 days plates were equilibrated to room temperature and equal volume of CellTiter-Glow Reagent (Promega) was added to the culture wells. The plates were agitated briefly and luminescent signal was measured with luminometer.
Using the procedures of Cell Proliferation Assay, the EC50 concentrations of compounds of the examples were determined in KMS11 cells as shown in Table 4.

Chain of Pim 1 (P11309 whole entry): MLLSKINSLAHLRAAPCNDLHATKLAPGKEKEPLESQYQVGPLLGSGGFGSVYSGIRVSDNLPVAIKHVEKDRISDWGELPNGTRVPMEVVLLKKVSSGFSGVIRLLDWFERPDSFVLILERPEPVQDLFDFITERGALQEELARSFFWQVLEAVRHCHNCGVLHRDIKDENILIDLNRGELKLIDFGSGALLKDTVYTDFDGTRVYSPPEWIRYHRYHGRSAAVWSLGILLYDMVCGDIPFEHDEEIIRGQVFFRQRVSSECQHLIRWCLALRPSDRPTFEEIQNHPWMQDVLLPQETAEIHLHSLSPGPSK
Chain of Pim 2 (Q9P1W9 whole entry): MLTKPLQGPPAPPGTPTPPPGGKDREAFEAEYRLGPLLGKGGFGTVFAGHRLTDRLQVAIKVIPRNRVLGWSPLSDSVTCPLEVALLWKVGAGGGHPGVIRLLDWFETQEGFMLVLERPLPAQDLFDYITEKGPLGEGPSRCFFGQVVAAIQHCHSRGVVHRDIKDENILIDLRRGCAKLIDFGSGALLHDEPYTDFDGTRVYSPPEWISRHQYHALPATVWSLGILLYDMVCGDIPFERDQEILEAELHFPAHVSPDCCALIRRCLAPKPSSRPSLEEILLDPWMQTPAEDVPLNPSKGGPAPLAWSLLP

IC50 (Pim 3) [nM] | IC50 (Pim 2) [nM] | IC50 (Pim 1) [nM] | EC50 [1] [nM] | SMILES
0.29 | 0.97 | 0.02 | 7 | CCOc1cc(F)c(-c2nc(C(=O)Nc3cnccc3N3C[C@@H](N)[C@H](O)[C@@H](C)C3)ccc2F)c(F)c1 [Example 20, N-(4-((3R,4R,5S)-3-amino-4-hydroxy-5-methylpiperidin-1-yl)pyridin-3-yl)-6-(4-ethoxy-2,6-difluorophenyl)-5-fluoropicolinamide]
0.68 | 1.09 | 0.01 | 251 | C[C@@H]1C[C@H](N)C[C@H](c2ccncc2NC(=O)c2ccc(F)c(-c3c(F)cc(C4CCS(=O)(=O)CC4)cc3F)n2)C1 [Example 202, N-(4-((1R,3S,5S)-3-amino-5-methylcyclohexyl)pyridin-3-yl)-6-(4-(1,1-dioxidotetrahydro-2H-thiopyran-4-yl)-2,6-difluorophenyl)-5-fluoropicolinamide]
0.29 | 1.08 | 0.01 |  | COCCOc1cc(F)c(-c2nc(C(=O)Nc3cnccc3[C@@H]3C[C@H](C)C[C@H](N)C3)c(N)cc2F)c(F)c1 [Example 118, 3-amino-N-(4-((1R,3S,5S)-3-amino-5-methylcyclohexyl)pyridin-3-yl)-6-(2,6-difluoro-4-(2-methoxyethoxy)phenyl)-5-fluoropicolinamide]
 | 0.93 |  | 158 | CC(C)[C@@H]1C[C@H](N)C[C@H](c2ccncc2NC(=O)c2ccc(F)c(-c3c(F)cc(OC4COC4)cc3F)n2)C1 [Example 183, N-(4-((1R,3S,5S)-3-amino-5-isopropylcyclohexyl)pyridin-3-yl)-6-(2,6-difluoro-4-(oxetan-3-yloxy)phenyl)-5-fluoropicolinamide]
0.75 | 3.51 | 0.04 |  | CCOc1cc(F)c(-c2nc(C(=O)Nc3cnccc3[C@H]3C[C@@H](N)[C@H](O)[C@@H](C)C3)ccc2F)c(F)c1 [Example 226, N-(4-((1R,3R,4R,5S)-3-amino-4-hydroxy-5-methylcyclohexyl)pyridin-3-yl)-6-(4-ethoxy-2,6-difluorophenyl)-5-fluoropicolinamide]
0.57 | 2.99 | 0.01 |  | C[C@@H]1C[C@H](N)C[C@H](c2ccncc2NC(=O)c2ccc(F)c(-c3c(F)cc(OC[C@H](O)CO)cc3F)n2)C1 [Example 2, N-(4-((1R,3S,5S)-3-amino-5-methylcyclohexyl)pyridin-3-yl)-6-(4-((R)-2,3-dihydroxypropoxy)-2,6-difluorophenyl)-5-fluoropicolinamide]
1.45 | 8.92 | 0.06 |  | CCOc1ccc(F)c(-c2nc(C(=O)Nc3cnccc3[C@@H]3C[C@H](C)C[C@H](N)C3)ccc2F)c1F [Example 213, N-(4-((1R,3S,5S)-3-amino-5-methylcyclohexyl)pyridin-3-yl)-6-(3-ethoxy-2,6-difluorophenyl)-5-fluoropicolinamide]
0.21 | 0.48 | 0.01 |  | COC1(c2cc(F)c(-c3nc(C(=O)Nc4cnccc4N4C[C@@H](N)[C@H](O)[C@@H](C)C4)c(N)cc3F)c(F)c2)COC1 [Example 112, 3-amino-N-(4-((3R,4R,5S)-3-amino-4-hydroxy-5-methylpiperidin-1-yl)pyridin-3-yl)-6-(2,6-difluoro-4-(3-methoxyoxetan-3-yl)phenyl)-5-fluoropicolinamide]
1.29 | 1.37 | 0.04 |  | COC(C)(C)c1cc(F)c(-c2nc(C(=O)Nc3cnccc3[C@H]3C[C@@H](N)[C@H](O)[C@@H](C)C3)c(N)cc2F)c(F)c1 [Example 114, 3-amino-N-(4-((1R,3R,4R,5S)-3-amino-4-hydroxy-5-methylcyclohexyl)pyridin-3-yl)-6-(2,6-difluoro-4-(2-methoxypropan-2-yl)phenyl)-5-fluoropicolinamide]
0.73 | 1.51 | 0.02 |  | COC(C)(C)c1cc(F)c(-c2nc(C(=O)Nc3cnccc3[C@@H]3C[C@H](C)C[C@H](N)C3)c(N)cc2F)c(F)c1 [Example 113, 3-amino-N-(4-((1R,3S,5S)-3-amino-5-methylcyclohexyl)pyridin-3-yl)-6-(2,6-difluoro-4-(2-methoxypropan-2-yl)phenyl)-5-fluoropicolinamide]
 | 1.36 |  | 12 | C[C@H]1CN(c2ccncc2NC(=O)c2ccc(F)c(-c3c(F)ccc(OCCO)c3F)n2)C[C@@H](N)[C@@H]1O [Example 31, N-(4-((3R,4R,5S)-3-amino-4-hydroxy-5-methylpiperidin-1-yl)pyridin-3-yl)-6-(2,6-difluoro-3-(2-hydroxyethoxy)phenyl)-5-fluoropicolinamide]
0.2 | 0.58 | 0.01 |  | C[C@H]1CN(c2ccncc2NC(=O)c2ccc(F)c(-c3c(F)cc(OC4CCOCC4)cc3F)n2)C[C@@H](N)[C@@H]1O [Example 116, N-(4-((3R,4R,5S)-3-amino-4-hydroxy-5-methylpiperidin-1-yl)pyridin-3-yl)-6-(2,6-difluoro-4-(tetrahydro-2H-pyran-4-yloxy)phenyl)-5-fluoropicolinamide]
 | 1.46 |  | 31 | C[C@H]1C[C@@H](c2ccncc2NC(=O)c2nc(-c3c(F)cc(OC4CCOCC4)cc3F)c(F)cc2N)C[C@@H](N)[C@@H]1O [Example 87, 3-amino-N-(4-((1R,3R,4R,5S)-3-amino-4-hydroxy-5-methylcyclohexyl)pyridin-3-yl)-6-(2,6-difluoro-4-(tetrahydro-2H-pyran-4-yloxy)phenyl)-5-fluoropicolinamide]
 | 2.61 |  | 55 | C[C@@H]1C[C@H](N)C[C@H](c2ccncc2NC(=O)c2ccc(F)c(-c3c(F)cc(CN4CCCC4=O)cc3F)n2)C1 [Example 144, N-(4-((1R,3S,5S)-3-amino-5-methylcyclohexyl)pyridin-3-yl)-6-(2,6-difluoro-4-((2-oxopyrrolidin-1-yl)methyl)phenyl)-5-fluoropicolinamide]
 | 2.42 | 0.02 | 24 | C[C@@H]1C[C@H](N)C[C@H](c2ccncc2NC(=O)c2ccc(F)c(-c3c(F)cc(C4(O)COC4)cc3F)n2)C1 [Example 55, N-(4-((1R,3S,5S)-3-amino-5-methylcyclohexyl)pyridin-3-yl)-6-(2,6-difluoro-4-(3-hydroxyoxetan-3-yl)phenyl)-5-fluoropicolinamide]
 | 3.74 | 0.02 | 285 | C[C@@H]1C[C@H](N)C[C@H](c2ccncc2NC(=O)c2ccc(F)c(-c3c(F)cc(C4=CCCC4)cc3F)n2)C1 [Example 160]
0.16 | 0.65 | 0.01 |  | C[C@H]1CN(c2ccncc2NC(=O)c2ccc(F)c(-c3c(F)cc(OC4COC4)cc3F)n2)C[C@@H](N)[C@@H]1O [Example 117, N-(4-((3R,4R,5S)-3-amino-4-hydroxy-5-methylpiperidin-1-yl)pyridin-3-yl)-6-(2,6-difluoro-4-(oxetan-3-yloxy)phenyl)-5-fluoropicolinamide]
0.51 | 1.78 | 0.02 |  | CCOc1cc(F)c(-c2nc(C(=O)Nc3cnccc3[C@@H]3C[C@H](C)C[C@H](N)C3)ccc2F)c(F)c1 [Example 225, N-(4-((1R,3S,5S)-3-amino-5-methylcyclohexyl)pyridin-3-yl)-6-(4-ethoxy-2,6-difluorophenyl)-5-fluoropicolinamide]
0.61 | 0.76 | 0.01 |  | CC(C)[C@@H]1C[C@H](N)C[C@H](c2ccncc2NC(=O)c2ccc(F)c(-c3c(F)cc(C4(O)COC4)cc3F)n2)C1 [Example 111, N-(4-((1R,3S,5S)-3-amino-5-isopropylcyclohexyl)pyridin-3-yl)-6-(2,6-difluoro-4-(3-hydroxyoxetan-3-yl)phenyl)-5-fluoropicolinamide]
0.12 | 0.66 | 0.01 |  | C[C@H]1CN(c2ccncc2NC(=O)c2nc(-c3c(F)cc(OC4CCOCC4)cc3F)c(F)cc2N)C[C@@H](N)[C@@H]1O [Example 115, 3-amino-N-(4-((3R,4R,5S)-3-amino-4-hydroxy-5-methylpiperidin-1-yl)pyridin-3-yl)-6-(2,6-difluoro-4-(tetrahydro-2H-pyran-4-yloxy)phenyl)-5-fluoropicolinamide]
 |  |  | 23 | C[C@H]1CN(c2ccncc2NC(=O)c2ccc(F)c(-c3c(F)cc(F)cc3F)n2)C[C@@H](N)[C@@H]1O [Example 218, N-(4-((3R,4R,5S)-3-amino-4-hydroxy-5-methylpiperidin-1-yl)pyridin-3-yl)-5-fluoro-6-(2,4,6-trifluorophenyl)picolinamide]
 |  |  | 27 | C[C@@H]1C[C@H](N)C[C@H](c2ccncc2NC(=O)c2ccc(F)c(-c3c(F)cc(C4(O)CCOCC4)cc3F)n2)C1 [Example 121, N-(4-((1R,3S,5S)-3-amino-5-methylcyclohexyl)pyridin-3-yl)-6-(2,6-difluoro-4-(4-hydroxytetrahydro-2H-pyran-4-yl)phenyl)-5-fluoropicolinamide]
0.25 | 0.95 | 0.01 |  | CC(C)[C@@H]1C[C@H](N)C[C@H](c2ccncc2NC(=O)c2ccc(F)c(-c3c(F)cc(OC4CCOCC4)cc3F)n2)C1 [Example 110, N-(4-((1R,3S,5S)-3-amino-5-isopropylcyclohexyl)pyridin-3-yl)-6-(2,6-difluoro-4-(tetrahydro-2H-pyran-4-yloxy)phenyl)-5-fluoropicolinamide]
